In patent US7399775B2, “β-amyloid protein production/secretion inhibitor” (Daiichi Pharmaceutical Co., Ltd., priority 2001, dated 2008):

Row | Structure (SMILES) | melting point [°C]
1 | CS(=O)(=O)CCCCC(c1cnco1)S(=O)(=O)c1ccc(Cl)cc1 (centres unmarked) [Example 118, 5-[1-(4-Chlorophenylsulfonyl)-5-(methylsulfonyl)pentyl]oxazole] | 164 to 166
2 | COC(=O)/C=C/c1ccc(C(c2cc(F)ccc2F)S(=O)(=O)c2ccc(Cl)cc2)nc1 (centres unmarked) [Example 332, Methyl 3-[6-[(4-chlorophenylsulfonyl)-(2,5-difluorophenyl)methyl]pyridin-3-yl]acrylate] | 145 to 146
3 | CS(=O)(=O)CCCCC(c1cccc(F)c1F)S(=O)(=O)c1ccc(Cl)cc1 (centres unmarked) [Example 77, 1-[1-(4-Chlorophenylsulfonyl)-5-(methylsulfonyl)pentyl]-2,3-difluorobenzene] | 141 to 143
4 | CN1CCC(C(c2ccncc2)S(=O)(=O)c2ccc(Cl)cc2)CC1 (centres unmarked) [Example 124, 4-[(4-Chlorophenylsulfonyl)(1-methylpiperidin-4-yl)methyl]pyridine] | 176 to 177
5 | O=S(=O)(c1ccc(Cl)cc1)C(Cc1ccccc1CO)c1cc(F)ccc1F (centres unmarked) [Example 277, [2-[2-[(4-Chlorophenyl)sulfonyl]-2-(2,5-difluorophenyl)ethyl]phenyl]methanol] | 107 to 108
6 | COc1ccc(-n2ccnc2C(c2cc(F)ccc2F)S(=O)(=O)c2ccc(Cl)cc2)cc1 (centres unmarked) [Example 153, 2-[[(4-Chlorophenyl)sulfonyl]-(2,5-difluorophenyl)methyl]-1-(4-methoxyphenyl)-1H-imidazole] | 150 to 151
7 | CS(=O)(=O)CCCCC(c1nccs1)S(=O)(=O)c1ccc(Cl)cc1 (centres unmarked) [Example 116, 2-[1-[(4-Chlorophenyl)sulfonyl]-5-(methylsulfonyl)pentyl]thiazole] | 118 to 119
8 | CS(=O)(=O)CCCCC(c1ccc(F)c(F)c1)S(=O)(=O)c1ccc(Cl)cc1 (centres unmarked) [Example 76, 4-[1-(4-Chlorophenylsulfonyl)-5-(methylsulfonyl)pentyl]-1,2-difluorobenzene] | 122 to 124
9 | O=c1oc2ccccc2c(O)c1C(Sc1ccc(Cl)cc1)c1cc(F)ccc1F (centres unmarked) | 146 to 147
10 | O=S(=O)(Cc1ccc(C(c2cc(F)ccc2F)S(=O)(=O)c2ccc(Cl)cc2)nc1)c1ccc(Cl)cc1 (centres unmarked) [Example 328, 2-[(4-Chlorophenylsulfonyl)-(2,5-difluorophenyl)methyl]-5-[(4-chlorophenylsulfonyl)methyl]pyridine] | 186 to 187
11 | Cc1ccc(S(=O)(=O)NCC(=O)NCc2ccc(C(c3cc(F)ccc3F)S(=O)(=O)c3ccc(Cl)cc3)nc2)cc1 (centres unmarked) [Example 358, N-[[6-[(4-Chlorophenylsulfonyl)(2,5-difluorophenyl)methyl]pyridin-3-yl]methyl]-2-(4-methylphenylsulfonylamino)acetamide] | 217 to 218
12 | O=S(=O)(c1ccc(Cl)cc1)C1(c2cc(F)ccc2F)CCCC1 [Example 30, 2-[1-[(4-Chlorophenyl)sulfonyl]cyclopentyl]-1,4-difluorobenzene] | 153 to 155
13 | CS(=O)(=O)CCCCC(c1cc(F)cc(F)c1)S(=O)(=O)c1ccc(Cl)cc1 (centres unmarked) [Example 72, 1-[1-[(4-Chlorophenyl)sulfonyl]-5-(methylsulfonyl)pentyl]-3,5-difluorobenzene] | 126 to 127
14 | CS(=O)(=O)CCCCC(c1ccc(F)cc1Cl)S(=O)(=O)c1ccc(Cl)cc1 (centres unmarked) [Example 68, 2-Chloro-1-[1-[(4-chlorophenyl)sulfonyl]-5-(methylsulfonyl)pentyl]-4-fluorobenzene] | 124 to 125
15 | O=C(CC(c1cc(F)ccc1F)S(=O)(=O)c1ccc(Cl)cc1)OCc1ccccc1 (centres unmarked) [Example 59, Benzyl 3-(4-chlorophenylsulfonyl)-3-(2,5-difluorophenyl)propionate] | 127 to 128
16 | O=S(=O)(c1ccc(Cl)cc1)C1(c2cc(F)ccc2F)CCCCCC1 [Example 275] | 101 to 103
17 | O=S(=O)(/C(=C/c1ccccc1)c1cc(F)ccc1F)c1ccc(Cl)cc1 [Example 6, E-2-[1-[(4-Chlorophenyl)sulfonyl]-2-phenylethenyl]-1,4-difluorobenzene] | 144.5 to 145
18 | O=S(=O)(c1ccc(Cl)cc1)C(CCCCO)(CCCCO)c1cc(F)ccc1F [Example 19, 5-[(4-Chlorophenyl)sulfonyl]-5-(2,5-difluorophenyl)-1,9-nonanediol] | 107 to 108.5
19 | CS(=O)(=O)CCCCC(c1ccccc1F)S(=O)(=O)c1ccc(Cl)cc1 (centres unmarked) [Example 53, 1-[1-[(4-Chlorophenyl)sulfonyl]-5-(methylsulfonyl)pentyl]-2-fluorobenzene] | 167 to 168
20 | CC(C)(c1cc(F)ccc1F)S(=O)(=O)c1ccc(Cl)cc1 [Example 232, 2-[1-[(4-Chlorophenyl)sulfonyl]-1-methylethyl]-1,4-difluorobenzene] | 147 to 148
21 | O=S(=O)(c1ccc(Cl)cc1)C(c1cc[n+]([O-])cc1)c1cc(F)ccc1F (centres unmarked) [Example 340, 4-[(4-Chlorophenylsulfonyl)-(2,5-difluorophenyl)methyl]pyridin-N-oxide] | 211 to 212
22 | CCCCC(c1ccncc1)S(=O)(=O)c1ccc(Cl)cc1 (centres unmarked) [Example 120, 4-[1-(4-Chlorophenylsulfonyl)pentyl]pyridine] | 109 to 111
23 | CS(=O)(=O)CCCCC(c1c(F)cccc1F)S(=O)(=O)c1ccc(Cl)cc1 (centres unmarked) [Example 81, 2-[1-(4-Chlorophenylsulfonyl)-5-(methylsulfonyl)pentyl]-1,3-difluorobenzene] | 118 to 119
24 | C=CCOc1cccnc1C(c1cc(F)ccc1F)S(=O)(=O)c1ccc(Cl)cc1 (centres unmarked) [Example 140, 3-Allyloxy-2-[[(4-chlorophenyl)sulfonyl]-(2,5-difluorophenyl)methyl]pyridine] | 119 to 120
25 | CS(=O)(=O)CCCCC(c1ccccn1)S(=O)(=O)c1ccc(Cl)cc1 (centres unmarked) [Example 70, 2-[1-[(4-Chlorophenyl)sulfonyl]-5-(methylsulfonyl)pentyl]pyridine] | 140 to 141
26 | Fc1ccc(F)c(C(Sc2ccc(Cl)cc2)c2ccc(C3OCCO3)cn2)c1 (centres unmarked) [Example 329, 2-[(4-Chlorophenylthio)-(2,5-difluorophenyl)methyl]-5-(1,3-dioxolan-2-yl)pyridine] | 70 to 73
27 | O=S1(=O)CCC(c2cc(F)ccc2F)(S(=O)(=O)c2ccc(Cl)cc2)CC1 [Example 253, 4-[(4-Chlorophenyl)sulfonyl]-4-(2,5-difluorophenyl)tetrahydrothiopyran-1,1-dioxide] | 204 to 206

Next, values leading:

Row | melting point [°C] | Structure (SMILES)
28 | 149 to 151 | O=S(=O)(c1ccc(Cl)cc1)C(CCN1CCOCC1)c1cc(F)ccc1F (centres unmarked) [Example 298, 4-[3-[(4-Chlorophenyl)sulfonyl]-3-(2,5-difluorophenyl)propyl]morpholine]
29 | 162 to 163 | O=S(=O)(c1ccc(Cl)cc1)C(Cc1cccnc1)c1cc(F)ccc1F (centres unmarked) [Example 219, 3-[2-[(4-Chlorophenyl)sulfonyl]-2-(2,5-difluorophenyl)ethyl]pyridine]
30 | 147 to 149 | O=S(=O)(c1ccc(Cl)cc1)C(CCO)c1cc(F)ccc1F (centres unmarked) [Example 207, 3-[(4-Chlorophenyl)sulfonyl]-3-(2,5-difluorophenyl)-1-propanol]
31 | 88 to 90 | O=S(=O)(c1ccc(Cl)cc1)C(CCCCc1ccccc1)c1cc(F)ccc1F (centres unmarked) [Example 313, 2-[1-(4-Chlorophenylsulfonyl)-5-phenylpentyl]-1,4-difluorobenzene]
32 | 128 to 129 | CSC(c1cc(F)ccc1F)S(=O)(=O)c1ccc(Cl)cc1 (centres unmarked) [Example 56, 2-[1-[(4-Chlorophenyl)sulfonyl]-1-methylthio]methyl-1,4-difluorobenzene]
33 | 79 to 80 | CC(C)CCCC(c1cc(F)ccc1F)S(=O)(=O)c1ccc(Cl)cc1 (centres unmarked) [Example 325, 2-[1-(4-Chlorophenylsulfonyl)-5-methylhexyl]-1,4-difluorobenzene]
34 | 232 to 233 | Cl.NCCCC(c1cc(F)ccc1F)S(=O)(=O)c1ccc(Cl)cc1 (centres unmarked)
35 | 118 to 120 | COc1ccc(CCC(c2cc(F)ccc2F)S(=O)(=O)c2ccc(Cl)cc2)cc1 (centres unmarked) [Example 308, 2-[1-(4-Chlorophenylsulfonyl)-3-(4-methoxyphenyl)propyl]-1,4-difluorobenzene]
36 | 47 to 48 | CCCCCCCC(c1cc(F)ccc1F)S(=O)(=O)c1ccc(Cl)cc1 (centres unmarked) [Example 324, 2-[1-(4-chlorophenylsulfonyl)octyl]-1,4-difluorobenzene]
37 | 77 to 79 | O=S(=O)(c1ccc(Cl)cc1)C(CCCCCCO)c1cc(F)ccc1F (centres unmarked) [Example 274, 7-[(4-Chlorophenyl)sulfonyl]-7-(2,5-difluorophenyl)-1-heptanol]
38 | 111 to 112 | CC(CCO)C(c1cc(F)ccc1F)S(=O)(=O)c1ccc(Cl)cc1 (single isomer, unassigned) [Example 238, 4-(4-Chlorophenylsulfonyl)-4-(2,5-difluorophenyl)-3-methyl-1-butanol]
39 | 106 | O=C(CCCCCC(c1cc(F)ccc1F)S(=O)(=O)c1ccc(Cl)cc1)N1CCCC1 (centres unmarked) [Example 206, 7-[(4-Chlorophenyl)sulfonyl]-7-(2,5-difluorophenyl)-1-(1-pyrrolildinyl)-1-heptanone]
40 | 167 to 170.5 | Cl.O=S(=O)(c1ccc(Cl)cc1)C(CCCCN1CCCC1)c1cc(F)ccc1F (centres unmarked)
41 | 60 to 63 | O=S(=O)(c1ccc(Cl)cc1)C(C/C=C\CO)c1cc(F)ccc1F (centres unmarked) [Example 247, (Z)-5-[(4-Chlorophenyl)sulfonyl]-5-(2,5-difluorophenyl)-2-penten-1-ol]
42 | 124 to 126 | O=S(=O)(c1ccc(Cl)cc1)C(CCc1ccc(Cl)cc1)c1cc(F)ccc1F (centres unmarked) [Example 310, 2-[3-(4-Chlorophenyl)-1-(4-chlorophenylsulfonyl)propyl]-1,4-difluorobenzene]
43 | 105 to 107 | O=S(=O)(c1ccc(Cl)cc1)C(Cc1ccccn1)c1cc(F)ccc1F (centres unmarked) [Example 218, 2-[2-[(4-Chlorophenyl)sulfonyl]-2-(2,5-difluorophenyl)ethyl]pyridine]
44 | 152 to 153 | O=C(O)CC(c1cc(F)ccc1F)S(=O)(=O)c1ccc(Cl)cc1 (centres unmarked) [Example 62, 3-[(4-Chlorophenyl)sulfonyl]-3-(2,5-difluorophenyl)propionic Acid]
